Patent US7175872B2, “Pyridinium-Betain compounds for use as taste modulators” (Nestec S.A., priority 2002, dated 2007)
Counter-ions that a name gives are not always drawn.

Key:
Assay type in all cases: in vivo
sweet taste of L-alanine = test: Sweet taste detection threshold of L-alanine/Pyridinium-Betaine mixtures (triangle test, sensory panel); conditions: mixture with L-alanine; for Threshold decrease: vs L-alanine in water 12.5 mmol/L
Procedure: • Sensory panel training: […] Sensory analyses were performed in a sensory panel room at 22-25° C. on three different sessions. • Taste thresholds: The taste thresholds of the tastants or mixtures containing basic tastants plus Pyridinium-Betains were determined in a triangle test using Evian® mineral water as the solvent at a defined pH ([…] and H.-D. Belitz, Z. Lebensm. Unters. Forsch. 1975, 159, 65-72). The samples (3 mL) were presented in order of increasing concentrations (serial 1:1 dilutions). The threshold values evaluated in two different sessions were averaged. […] The taste intensities of aqueous (Evian®) solutions containing a basic tastant, such as glucose and MSG, for example, in constant concentrations and the compounds of the general formula (A), for example […], in various concentrations were compared with those of a solution containing the basic tastant only. To achieve this, triangle tests were performed with two glass vials containing the basic tastant in constant concentrations, and one glass vial containing a stepwise 1:1-diluted mixture of basic […]. […] The relative taste strength (taste enhancing factor) of a mixture containing the basic […] was related to the basic tastants glucose, MSG, or other tastants, respectively, as standard substances, and was determined as the ratio of the concentrations c of iso-intensely tasting solutions of the basic tastant, such as glucose (glc), and the mixture containing tastant plus Pyridinium-Betain, […])=[…] […] This taste enhancing effect is illustrated in examples. Besides the two carbohydrates, the sweet amino acid L-alanine was also tested with […]. Again, the best impact on sweet taste perception was found for the mixture at pH 9.0, resulting in an 8-fold lower threshold.

umami taste of MSG = test: Umami taste detection threshold of MSG/Pyridinium-Betaine mixtures (triangle test, sensory panel); conditions: equimolar mixture with MSG; for Threshold decrease: vs MSG in water 1.5 mmol/L
Procedure: • Sensory panel training: […] Sensory analyses were performed in a sensory panel room at 22-25° C. on three different sessions. • Taste thresholds: The taste thresholds of the tastants or mixtures containing basic tastants plus Pyridinium-Betains were determined in a triangle test using Evian® mineral water as the solvent at a defined pH ([…] and H.-D. Belitz, Z. Lebensm. Unters. Forsch. 1975, 159, 65-72). The samples (3 mL) were presented in order of increasing concentrations (serial 1:1 dilutions). The threshold values evaluated in two different sessions were averaged. […] The taste intensities of aqueous (Evian®) solutions containing a basic tastant, such as glucose and MSG, for example, in constant concentrations and the compounds of the general formula (A), for example […], in various concentrations were compared with those of a solution containing the basic tastant only. To achieve this, triangle tests were performed with two glass vials containing the basic tastant in constant concentrations, and one glass vial containing a stepwise 1:1-diluted mixture of basic […]. […] The relative taste strength (taste enhancing factor) of a mixture containing the basic […] was related to the basic tastants glucose, MSG, or other tastants, respectively, as standard substances, and was determined as the ratio of the concentrations c of iso-intensely tasting solutions of the basic tastant, such as glucose (glc), and the mixture containing tastant plus Pyridinium-Betain, […])=[…] […] This taste enhancing effect is illustrated in examples. Pyridinium-Betaines not only enhance the sweet taste perception, but also the umami taste.

salty taste of NaCl = test: Salt taste detection threshold of NaCl/Pyridinium-Betaine mixtures (triangle test, sensory panel); conditions: mixture with NaCl, pH 7.0
Procedure: • Sensory panel training: […] Sensory analyses were performed in a sensory panel room at 22-25° C. on three different sessions. • Taste thresholds: The taste thresholds of the tastants or mixtures containing basic tastants plus Pyridinium-Betains were determined in a triangle test using Evian® mineral water as the solvent at a defined pH ([…] and H.-D. Belitz, Z. Lebensm. Unters. Forsch. 1975, 159, 65-72). The samples (3 mL) were presented in order of increasing concentrations (serial 1:1 dilutions). The threshold values evaluated in two different sessions were averaged. […] The taste intensities of aqueous (Evian®) solutions containing a basic tastant, such as glucose and MSG, for example, in constant concentrations and the compounds of the general formula (A), for example […], in various concentrations were compared with those of a solution containing the basic tastant only. […] The relative taste strength (taste enhancing factor) of a mixture containing the basic […] was related to the basic tastants glucose, MSG, or other tastants, respectively, as standard substances, and was determined as the ratio of the concentrations c of iso-intensely tasting solutions of the basic tastant, such as glucose (glc), and the mixture containing tastant plus Pyridinium-Betain, […])=[…] […] This taste enhancing effect is illustrated in examples.

beef taste recombinate = test: Effect of Alapyridaine on the taste profile of a beef broth taste recombinate; conditions: pH 5
Source text: The beef taste recombinate (K. Shima et al., J. Agric. Food. Chem. 1998, 46, 1465–1468) consisting of 16 amino acids, 4 sugars, three 5′-nucleotides, 3 carbonic acids, 3 salts, and 4 other compounds was used as a sample having a basic brothy taste at pH 5, i.e. (in mg/L water) threonine (68), serine (38), MSG (64), proline (16), glycine (56), alanine (192), valine (34), methionine (20), isoleucine (16), leucine (28), tyrosine (38), phenylalanine (26), lysine hydrochloride (44), histidine (38), arginine (32), taurine (248), ribose (4), mannose (8), fructose (20), glucose (40), IMP.2Na.5H20 (424), GMP.2Na7H20 (80), AMP (60), pyroglutamic acid (1296), lactic acid (3567), succinic acid (98), NaCl (854), KCl (3940), MgCl2.6H20 (1104), CaCl2.2H20 (14), H3PO4, carnosine (912), creatine (1106), and creatinine (572) were dissolved in 1 L of water, and the pH was adjusted to 5.0.
The sensory panel was asked to score the given taste qualities of the biomimetic beef taste recombinate on a scale from 0 (not detectable) to 5 (strong). To study the influence of Alapyridaine on the taste qualities of that recombinate, a triangle test was performed with two glass vials containing the pure beef taste recombinate, and one glass vial containing the beef taste recombinate plus a known amount of Alapyridaine. […]

## CC(C(=O)[O-])[n+]1cc(O)ccc1CO (stereo not drawn) [Alapyridaine, N-(1-carboxyethyl)-3-hydroxy-6-hydroxymethyl-pyridinium inner salt]
Sweet taste of L-alanine; pH 5.0
  reduction of the sweet threshold: only a slight reduction
Sweet taste of L-alanine; pH 6.0
  Sweet detection threshold: 6.0 mmol/kg water
  Taste quality: sweet
  Threshold decrease: 2.0
Sweet taste of L-alanine; pH 7.0
  Sweet detection threshold: 3.0 mmol/kg water
  Taste quality: sweet
  Threshold decrease: 4
Sweet taste of L-alanine; pH 9.0
  Sweet detection threshold: 1.5 mmol/kg water
  Taste quality: sweet
  Threshold decrease: 8
Umami taste of MSG; pH 5.0
  Taste quality: umami
  Umami detection threshold: 0.4 mmol/kg water
  Threshold decrease: 4.0
Umami taste of MSG; pH 7.0
  Taste quality: umami
  Umami detection threshold: 0.4 mmol/kg water
  Threshold decrease: 4.0
Umami taste of MSG; pH 9.0
  Taste quality: umami
  Umami detection threshold: 0.4 mmol/kg water
  Threshold decrease: 4.0
Salty taste of NaCl
  Salt detection threshold: 2.0 mmol/kg water
  Taste quality: salty
Salty taste of NaCl; vs NaCl in water 10.0 mmol/L
  Threshold decrease: 5.0
Beef taste recombinate; 0.5 mg/L Alapyridaine added
  effect on taste profile of beef taste recombinate: increased the umami character and decreased the sour note
Beef taste recombinate; 5 mg/L Alapyridaine added
  effect on taste profile of beef taste recombinate: more intense umami, sweet and salty taste and a reduced sourness
